Values after ≈ are worked out from the molar mass of the structure shown. Like-named read-outs stand apart in the source and are kept apart here.
Columns and labels:
[1] = tested on: Human hepatocellular carcinoma HepG2 cells; test: Cell viability (MTS, 72 h); format: cell-based; details: HepG2, Table 6, mean (SD), read-out: IC50 (μM) HepG2
Protocol: (§1) Cell viability was determined from the expression:
(§2) The plot was constrained to ≧0 and ≦100%.
Human hepatocellular carcinoma HepG2 and human pancreatic cancer MIA PACA II cells were obtained from ATCC (Rockville, Md.). They were grown in DMEM (high glucose, Invitrogen) supplemented with 10% FBS, 50 μg/mL penicillin and 50 μg/mL streptomycin, 37° C., 5% CO2 until they reached 80-90% confluency, after which they were subcultured. Passage numbers were kept within 7-14 passages for both cell types.

[2] = tested on: MDA-MB-231 human breast cells; test: Antiproliferative activity / cell viability (MTS, 72 h); details: Homo sapiens
Protocol: (§4) The relative number of the live cells was determined using the CellTiter® 96 AQueous One Solution Cell Proliferation Assay (Promega). Determinations were made in duplicates or triplicates.
Human breast cancer MDA-MB231, liver cancer HepG2 and lung fibroblast cells were purchased from ATCC (Rockville, Md.). MDA-MB231 cells and IMR-90 cells were grown in DMEM (Sigma Aldrich, Singapore) and EMEM (Sigma Aldrich, Singapore) respectively at 37° C., 5% CO2. DMEM was supplemented with 10% fetal bovine serum (Invitrogen, heat treated at 65 deg C., 30 min), 50 units/L penicillin-G and 50 μg/mL streptomycin. EMEM was supplemented with 10% fetal bovine serum (heat treated as above), 100 mg/L penicillin-G and 100 μg/mL streptomycin.
Cell viability was assessed using CellTitre 96® Aqueous One Solution (Promega, Madison, Wis.) containing the tetrazolium salt 3-(4,5-dimethylthiazol-2-yl)-5-(3-carboxymethoxyphenyl)-2-(4-sulfophenyl)-2H-tetrazolium (MTS). […] Final concentration of DMSO per well was maintained at 0.5% v/v. […] Cell viability was determined from the expression:
The plot was constrained to ≧0 and ≦100%. At least 3 independent determinations of IC50 were made using two different stock solutions of test compound.

[3] = tested on: PC3 Prostrate cancer cells; test: as above; format: cell-based, human; details: Homo sapiens
Protocol: as §4

[4] = biological target: T1, Isoprenylcysteine carboxyl methyltransferase (Icmt) (Homo sapiens, UniProt O60725); test: Icmt inhibition, scintillation proximity assay with BFC and [3H]SAM; format: biochemical
T1 construct: made in house; host or cells: Sf9 (Spodoptera frugiperda) insect cells; membrane preparation provided by Prof PJ Casey (Duke University / Duke-NUS)
Protocol: Isoprenylcysteine carboxyl methyltransferase (Icmt) was provided by Prof PJ Casey of Duke University, NC. S-Adenosylmethionine (SAM), magnesium chloride Hexahydrate (MgCl2), tartrazine, 4-(2-hydroxyethyl)-1-piperazineethanesulfonic acid (HEPES), dimethyl sulfoxide (DMSO) and dithiotreitol (DTT) were purchased from Sigma (Mo, USA). [^3H] S-Adenosylmethionine, [^3H] Biotin and Streptavidin PVT SPA Beads were purchased from PerkinElmer (Waltham, Mass.). Assays were performed in black small volume 384 well microtitre plates from PerkinElmer.
Stocks of Icmt membrane protein (30 μg/μL) stored at −80° C. were thawed at 37° C. and placed on ice. The Icmt membrane protein was diluted in assay buffer (70 mM HEPES, 100 mM NaCl, 5 mM Mg Cl2 and 3 mM DTT, pH 7.5) to a 0.03 μg/μL working concentration and added to the wells of a microtitre plate (5 μl/well). To each wells 20 μl of the reaction buffer was added. The reaction was initiated with the addition of 5 μL of substrate solution containing BFC (6 μM), SAM (3 μM) and 30 μCi/mL [^3H] SAM (all of these reagents were stored at −20° C., SAM reagents thawed on ice, BFC thawed at RT). The plate was incubated at 37° C. for 30 minutes. The reaction was stopped with the addition of 15 μL of stop solution containing SAM (150 μM) and Streptavidin SPA beads (20 mg/mL). Following overnight incubation at ambient temperature radioactivity was counted on a Microbeta Trilux™ (Perkin Elmer, Turku, Finland).
Sf9 (Spodoptera frugiperda ovarian) membranes containing recombinant Icmt were provided by Prof PJ Casey (Duke University, NC and Duke-NUS Graduate Medical School). S-Adenosylmethionine (SAM), magnesium chloride hexahydrate, tartrazine, 4-(2-hydroxyethyl)-1-piperazineethanesulfonic acid (HEPES) and dithiotreitol (DTT) were purchased from Sigma (Mo, USA). [^3H] S-Adenosylmethionine, [^3H] biotin and streptavidin PVT SPA Beads were purchased from PerkinElmer (Waltham, Mass.). Biotinylated farnesylcysteine was synthesized as described in an earlier report. Assays were performed in black 384-well microtitre plates from PerkinElmer.
A vial of Icmt membrane protein (30 μg/μL) stored at −80° C. was thawed at 37° C. and placed on ice. The protein was diluted in assay buffer (70 mM HEPES, 100 mM NaCl, 5 mM MgCl2, 3 mM DTT, pH 7.5) to 0.03 μg/μL and aliquots were added to each well (5 μL/well), followed by 20 μL of the assay buffer. The reaction was initiated by adding 5 μL of a solution containing biotinylated BFC (6 μM), SAM (3 μM) and 30 μCi/mL [^3H] SAM. These reagents were stored at −20° C. and thawed on ice (SAM, [^3H] SAM) or at room temperature (BFC). The plate was incubated at 37° C. for 30 minutes after which the reaction was quenched by adding 15 μL of a solution comprising SAM (150 μM) and streptavidin SPA beads (20 mg/mL). After overnight incubation at ambient temperature, radioactivity was counted (Microbeta Trilux™, Perkin Elmer, Turku, Finland). The degree of inhibition was assessed from the radioactivity obtained in presence of test compound compared to that obtained from the control sample […]. Two independent determinations were made for each test compound.

[5] = tested on: Human lung fibroblast IMR90 cells; test: Cell viability on non-malignant cells (MTS, 72 h); format: cell-based
Protocol: as §1, §2
Human lung fibroblast IMR90 cells were purchased from ATCC (Rockville, Md.) and grown in Eagle's Minimal Essential Media (EMEM, Sigma Aldrich, Singapore) at 37° C., 5% CO2. […] Seeding density was maintained at 4000 cells per well.

[6] = Aggregation tendency by dynamic light scattering (DLS); format: physicochemical; details: for DLS count rate (kcps): 1% DMSO, potassium phosphate buffer 5 mM pH 7.4
Protocol: Stock solutions (10 mM) of test compounds prepared in DMSO, diluted to 1 mM with DMSO and then serially diluted with potassium phosphate buffer (5 mM, pH 7.4, prefiltered before use) to give final concentrations of 1 μM and 10 μM. Final concentration of DMSO was 1% v/v. Measurements were carried out on the Malvern Instrument Zetasizer Nano ZS system equipped with a 4 mW He—Ne laser at 633 nm and detector angle of 90°. Three or more determinations of derived count rates (kilocounts per second, kcps) were obtained from each concentration of test compound, using two separately prepared stock solutions. Data collection was carried out using the software supplied with the instrument. Results are represented as mean±standard deviation. The positive control was benzyl benzoate (250 μM) which gave a count rate of 1180 kcps (±35). The vehicle (phosphate buffer, 1% DMSO) gave a reading of 14.9±0.4.

[7] = Parallel Artificial Membrane Permeability Assay (PAMPA); details: 500 uM stock, similar conditions
Protocol: Briefly, determinations were carried out on MultiScreen-IP PAMPA assay (donor) plates (MAIPNTR10) and MultiScreen Receiver Plates (MATRNPS50) from Millipore Corporation (USA) with 1% lecithin (L-α-phosphatidylcholine from lyophilized powder of egg yolk, Sigma Aldrich, USA) in dodecane (ReagentPlus®, Sigma Aldrich, USA) as lipid barrier. 5 μL of 1% lecithin in dodecane was dispensed into the wells of the donor plates. […] The mobile phase was Milli-Q water (0.1% formic acid) and acetonitrile (0.1% formic acid), run on gradient.
Pe was obtained from Equation 1:
[formula] Where VA and VD are the volumes of acceptor (cm^3) and donor (cm^3) wells respectively, A is the area of the surface area of the membrane (0.24 cm^2), t is the permeation time (s); S is the fraction of sample remaining in the donor and acceptor wells after permeation time and is determined from Equation 2, CA and CD are the concentrations (μM) of test/reference compound in acceptor and donor wells respectively.
The Pe of each compound was obtained from at least 3 separate experiments using no less than 2 different stock solutions. For each independent determination, triplicates (3 wells) were run for each compound.

physchem = details: for solubility at 3 h / solubility at 24 h: pH 7.4, aqueous buffer, kinetic from dmso stock; for solubility at 24 h: 25 °C
Protocol: The turbid solution was delivered to the filter plate, agitated for a specific time period and then filtered. The concentration of dissolved compound in the filtrate was determined by uv spectroscopy and referred to pre-constructed calibration curves for solubility determination.
(§3) Determination of aqueous solubility was carried out on Multiscreen® Solubility filter plates (Millipore-MSSLBPC10) from Millipore Corporation (MA, USA). The protocol (PC2445EN00, Millipore Corporation) was followed. Briefly, various concentrations of the test compound were prepared in Universal buffer (pH 7.4)/acetonitrile/DMSO. The UV absorbances of these solutions were obtained at a pre-determined wavelength and used to construct a calibration curve for the test compound. Next, a stock solution of the test compound in DMSO was prepared at a known concentration, diluted with Universal buffer (pH 7.4), dispensed into wells in the Multiscreen Solubility filter plate, and agitated for a period of time. The suspension is then filtered, the filtrate collected and diluted with acetonitrile to give the same solvent composition used to prepare the calibration solutions. The absorbance of the diluted filtrate was then read at the predetermined wavelength and the concentration of the filtrate (taken here to be equivalent to the solubility of the test compound) was determined from the calibration curve.
as §3, with “24 hours at room temperature (25 deg C.). […]” for “a period of time.”, “was” for “is then”, “was” for “was then”, “(equivalent” for “(taken here to be equivalent”, “curve. […] LCMS determinations were made on an Agilent 1200 Series HPLC linked to a AB Sciex Instruments 3200 Q TRAP LC/MS/MS. Separations were carried out on a Phenomenex Luna column [3u, C18(2), 100A, 5×4.6 mm]. […] Quantification was based on the ratio of peak areas of the daughter ion and the mother ion (M+H), normalized against the same ratio obtained for the internal standard. The solubility determinations were carried out in triplicates or more from two different stock solutions.” for “curve.”

[8] = tested on: MDA-MB-231 human breast cells; details: earlier study; read-out: IC50 MDA-MB-231, previous value; cited from earlier work
[9] = MDA-MB-231, 72 h, read-out: IC50MDA-MB-231 (μM)
[10] = MDA-MB-231, read-out: IC50 (μM) MDA MB 231
[11] = PC-3M, Table 3, 72 h, mean (SD), read-out: IC50 PC3
[12] = Table 6, from earlier table, read-out: IC50 (μM) PC3
[13] = Table 3, mean of two or more determinations (SD), read-out: IC50 Icmt
[14] = IMR-90, Table 6, mean (SD), read-out: IC50 (μM) IMR90
[15] = MDA-MB-231, 72 h, read-out: IC50 MDA-MB-231 (μM)
[16] = IMR-90, further testing, 72 h, mean (SD), read-out: IC50 IMR90

T1 sequence (O60725 whole entry, species assumed): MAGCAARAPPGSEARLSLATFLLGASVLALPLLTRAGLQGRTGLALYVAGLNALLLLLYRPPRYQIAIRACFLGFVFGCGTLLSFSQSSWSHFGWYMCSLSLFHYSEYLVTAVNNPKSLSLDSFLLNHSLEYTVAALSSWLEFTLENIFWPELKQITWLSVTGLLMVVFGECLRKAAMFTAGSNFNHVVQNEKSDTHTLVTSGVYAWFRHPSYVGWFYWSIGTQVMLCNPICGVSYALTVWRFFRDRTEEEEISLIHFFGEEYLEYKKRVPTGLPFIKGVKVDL

| SMILES | IC50 [1] [µM] | IC50 [2, 9] [µM] | IC50 [2, 10] [µM] | IC50 [3, 11] [µM] | IC50 [4, 13] [µM] | solubility at 3 h (physchem) [µM] | solubility at 24 h (physchem) [µM] | other results |
| --- | --- | --- | --- | --- | --- | --- | --- | --- |
| CCCCCCCCn1cc(CN(CC)CC)c2cc(-c3ccc(S(C)(=O)=O)cc3)ccc21 [Compound 8-10, Diethyl-[5(4-methanesulfonyl-phenyl)-1-octyl-1H-indol-3ylmethyl]-amine] | 3.44 | 5.56 | 5.56 | 4.74 | 1.72 | – | – | IC50 [3, 12]: 4.74 µM; IC50 [5, 14]: 5.52 µM |
| O=C(OCc1ccccc1)c1ccccc1 [benzyl benzoate, reference compound] | – | – | – | – | – | – | – | DLS count rate ([6]; positive control, 250 μM): 1180 kcps |
| C=C[C@H]1C[N@@]2CC[C@H]1C[C@@H]2[C@@H](O)c1ccnc2ccc(OC)cc12 [quinidine, reference compound] | – | – | – | – | – | – | – | Pe sequence of standard compounds [7]: verapamil>quinidine>caffeine |
| CCCCCCCCn1cc(CN(CC)CC)c2cc(-c3ccc(S(=O)(=O)NC)cc3)ccc21 [Compound 8-24, 4-(3-Diethylaminomethyl-1-octyl-1H-indol-5-yl)-N-methyl-benzensulfonamide] | 4.76 | 8.52 | 8.7 | – | 1.71 | – | – | – |
| Cn1c(=O)c2c(ncn2C)n(C)c1=O [caffeine, reference compound] | – | – | – | – | – | – | – | Pe sequence of standard compounds [7]: verapamil>quinidine>caffeine |
| CCCCCCCCn1cc(CN(CC)CC)c2cc(-c3cccnc3)ccc21 [Compound 8-7, Diethyl-(1-octyl-5-pyridin-3-yl-1H-indol-3ylmethyl)-amine] | – | 5.5 | – | 5.84 | 1.75 | 250 (≈ 97.8 µg/mL) | – | DLS count rate (kcps) ([6]; 1 μM): 16.8 kcps; DLS count rate (kcps) ([6]; 10 μM): 16.5 kcps; Aqueous Solubility (pH 7.4) 24 hours (physchem; 24 h, pH 7.4): 244.8 (9.7) μM; Solubility (μM) (physchem; 24 h, pH 7.4): 244.8 (9.7) μM; IC50 [2, 15]: 6.01 µM; IC50 [4]: 1.8 µM; IC50 [5, 16]: 5.52 µM |
| CCCCCCCCn1cc(CN(CC)CC)c2cc(-c3cccc(C)c3)ccc21 [Compound 8-1] | 6.57 | 7.9 | 7.9 | 6.31 | 2.2 | < 1 | < 1 | IC50 [8]: 3.6 µM; IC50 [3, 12]: 6.31 µM; IC50 ([4]; Table 3, mean of two or more determinations (SD), listed as 8.1, read-out: IC50 Icmt): 2.18 µM; IC50 [5, 14]: 5.26 µM |
| CCCCCCCCn1cc(CN(CC)CC)c2cc(-c3cncnc3)ccc21 [Compound 8-15, Diethyl-(1-octyl-5-pyrimidin-5-yl-1H-indol-3ylmethyl)-amine] | – | 9 | – | 8.32 | 1.58 | 266 (≈ 105 µg/mL) | 272 (≈ 107 µg/mL) | DLS count rate (kcps) ([6]; 1 μM): 20.4 kcps; DLS count rate (kcps) ([6]; 10 μM): 28.9 kcps; Solubility (μM) (physchem; 24 h, pH 7.4): 271.56 (6.63) μM; IC50 [2, 15]: 13.2 µM; IC50 ([4]; further testing, mean (SD), read-out: IC50 Icmt): 1.6 µM; IC50 [5, 16]: 9.84 µM |
| CCCCCCCCn1cc(CN(CC)CC)c2cc(-c3cnc(N(C)C)nc3)ccc21 | – | – | – | – | – | 25.3 (≈ 11 µg/mL) | 24.9 (≈ 10.8 µg/mL) | – |

Reference: US9422238B2, “ICMT inhibitors” (National University of Singapore, priority 2012, dated 2016)
